Laboratory results as given in PMC7669867, “Synthesis and initial screening of lactate dehydrogenase inhibitor activity of 1,3-benzodioxole derivatives” (Scientific Reports, 2020).
Like-named read-outs stand apart in the source and are kept apart here.

What was measured:
[1] = molecular target: T1, purified recombinant human LDHA protein (Homo sapiens, UniProt P00338); assay: In vitro LDHA inhibitor activity (NADH fluorescence decrease); type: biochemical
T1 construct: purchased Abcam
Description: (§1) The in vitro evaluation of the LDHA inhibitor activities of the synthesized compounds was determined by the NADH intensity decrease through oxidation in a solution of HEPES-K^+, NADH, and pyruvate at a pH = 7.2. The NADH oxidation fluorescence intensity was measured using a spectrofluorometer at 340 nm excitation and 460 nm emission wavelengths, representing the NADH-specific fluorescence spectrum. Furthermore, the in vitro evaluation of the LDHB inhibitor activity was determined as a reverse reaction, which converts lactate to pyruvate by determining the amount of NAD^+ converted to NADH using the above-mentioned spectrophotometric experimental setting (Table 2). Based on this analysis, the half-maximal inhibitory concentration (IC50) of the synthesized compounds was obtained.
In vitro evaluation on LDHA inhibitor activity. LDHA activity assay was performed in accordance with previous studies[16],[18]. Briefly, the various concentrations of compounds were incubated with reaction buffer containing 20 mM HEPES-K^+, 20 μM NADH, 2 mM pyruvate, and 100 ng of purified recombinant human LDHA protein (Abcam, Cambridge, UK). The fluorescence of NADH, which has an excitation wavelength of 340 nm and an emission wavelength of 460 nm, was detected using a microplate spectrofluorometer (Spectramax M2; Molecular Devices, Sunnyvale, CA).

[2] = molecular target: T2, purified recombinant human LDHB protein (Homo sapiens, UniProt P07195); assay: In vitro LDHB activity assay (NAD+ converted to NADH); type: biochemical; conditions: synthesized compounds; read-out: LDHB IC50
T2 construct: purchased Abcam
Description: as §1
In vitro analysis was determined the amount of NAD^+ converted to NADH[33]. The assay mixture composed of 100 mM Tris–HCl buffer (pH 8.0), 200 mM sodium L-lactate, 2.5 mM NAD^+, and 100 ng of purified recombinant human LDHB protein (Abcam). The fluorescence intensity of NADH was measured using a spectrofluorometer (Spectramax M2) at 340 nm as excitation wavelength and 460 nm as emission wavelength which is the specific fluorescence of NADH.

[3] = test system: human pancreatic cancer PANC-1 cells; assay: Cell viability MTT assay, PANC-1; type: cell-based; conditions: Homo sapiens, PANC-1; MTT, 48 h; read-out: PANC-1 (GI50)
Description: (§2) The human pancreatic cancer cell lines, PANC-1 and MiaPaCa-2, human lung cancer A549 cells, human breast cancer MCF-7, and human glioma U87 cells were obtained from the Korean cell line bank (Seoul, Korea). The cells were cultured in Dulbecco’s Modified Eagle Medium (DMEM; ThermoFisher Scientific, Waltham, MA) supplemented with 10% fetal bovine serum (FBS; Sigma-Aldrich) and 1% penicillin/streptomycin (ThermoFisher Scientific). The cells were cultured at 37 °C in an atmosphere containing 5% CO2.
(§3) The potential cytotoxicity of compounds at different concentrations was evaluated using the MTT assay. Briefly, cancer cell lines were pre-incubated in 96-well plates with compounds for 48 h. Subsequently, MTT working solution (2 mg/mL in phosphate buffer solution) was added to each well and the plate was incubated for 4 h at 37 °C in an atmosphere containing 5% CO2. Then, the conditioned media were aspirated, and the formed formazan crystals in living cells were quantified using the microplate reader (Spectramax M2) at 540 nm. The concentrations that produce 50% cell growth inhibition (GI50) were calculated by curves constructed by the plot of cell survival by an assistant of PRISM software (GraphPad, San Diego, CA).

[4] = test system: human lung cancer A549 cells; assay: Cell viability MTT assay, A549; type: cell-based; conditions: A549, MTT, 48 h, read-out: A549 (GI50)
Description: as §2, §3

[5] = test system: human breast cancer MCF-7; assay: Cell viability MTT assay, MCF-7; type: cell-based; conditions: MCF7, MTT, 48 h, read-out: MCF-7 (GI50)
Description: as §2, §3

[6] = test system: human pancreatic cancer MiaPaCa-2 cells; assay: Cell viability MTT assay, MiaPaCa-2; type: cell-based; conditions: MIA PaCa-2, MTT, 48 h, read-out: MiaPaCa-2 (GI50)
Description: as §2, §3

[7] = test system: human glioma U87 cells; assay: Cell viability MTT assay, U87; type: cell-based; conditions: U-87 MG, MTT, 48 h, read-out: U87 (GI50)
Description: as §2, §3

[8] = molecular target: T3, CYP1A2 (Homo sapiens, UniProt P05177); assay: CYP isozymes activity assay, CYP1A2; type: in vitro ADME; conditions: microsomes, 0.1 µM
T3 construct: Pooled Human liver microsomes (Sigma-Aldrich; 0.25 mg/mL); tissue Sigma-Aldrich; host or cells: pooled human liver microsomes
T3 sequence (P05177 1-516): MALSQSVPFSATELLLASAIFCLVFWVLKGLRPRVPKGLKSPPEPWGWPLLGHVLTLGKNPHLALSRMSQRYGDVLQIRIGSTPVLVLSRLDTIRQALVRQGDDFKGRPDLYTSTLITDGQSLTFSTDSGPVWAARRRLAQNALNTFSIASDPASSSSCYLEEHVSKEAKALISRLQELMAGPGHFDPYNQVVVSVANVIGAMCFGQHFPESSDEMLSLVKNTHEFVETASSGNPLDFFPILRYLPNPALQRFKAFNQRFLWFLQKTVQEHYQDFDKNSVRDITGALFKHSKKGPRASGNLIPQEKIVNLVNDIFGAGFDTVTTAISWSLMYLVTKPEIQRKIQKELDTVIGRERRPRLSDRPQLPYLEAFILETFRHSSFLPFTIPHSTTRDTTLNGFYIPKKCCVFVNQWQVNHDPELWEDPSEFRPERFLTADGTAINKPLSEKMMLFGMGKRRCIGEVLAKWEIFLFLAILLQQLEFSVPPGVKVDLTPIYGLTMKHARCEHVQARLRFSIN
Description: (§4) Pooled Human liver microsomes (Sigma-Aldrich; 0.25 mg/mL), 0.1 M phosphate buffer solution (pH 7.4), the five most commonly used substrate cocktails, such as 50 µM phenacetin (CYP1A2), 10 µM diclofenac […], 100 µM S-mephenytoin (CYP2C19) 5 µM dextromethorphan (CYP2D6), and 2.5 µM midazolam (CYP3A4), and compound 10 are pre-incubated at 37 °C for 5 min, then incubated with NADPH generation system solution for 15 min. To finish the enzymatic reaction, an acetonitrile solution (containing terfenadine) is added. The reaction tubes are centrifuged and the supernatant is withdrawn for analysis by LC–MS/MS.

[9] = molecular target: T4, CYP2C9 (Homo sapiens, UniProt P11712); assay: CYP isozymes activity assay, CYP2C9; type: in vitro ADME; conditions: microsomes, 0.1 µM
T4 construct: Pooled Human liver microsomes (Sigma-Aldrich; 0.25 mg/mL); tissue Sigma-Aldrich; host or cells: pooled human liver microsomes
Description: as §4

[10] = molecular target: T5, CYP2C19 (Homo sapiens, UniProt P33261); assay: CYP isozymes activity assay, CYP2C19; type: in vitro ADME; conditions: microsomes, 0.1 µM
T5 construct: Pooled Human liver microsomes (Sigma-Aldrich; 0.25 mg/mL); tissue Sigma-Aldrich; host or cells: pooled human liver microsomes
Description: as §4

[11] = molecular target: T6, CYP2D6 (Homo sapiens, UniProt P10635); assay: CYP isozymes activity assay, CYP2D6; type: in vitro ADME; conditions: microsomes, 0.1 µM
T6 construct: Pooled Human liver microsomes (Sigma-Aldrich; 0.25 mg/mL); tissue Sigma-Aldrich; host or cells: pooled human liver microsomes
Description: as §4

[12] = molecular target: T7, CYP3A4 (Homo sapiens, UniProt P08684); assay: CYP isozymes activity assay, CYP3A4; type: in vitro ADME; conditions: microsomes, 0.1 µM
T7 construct: Pooled Human liver microsomes (Sigma-Aldrich; 0.25 mg/mL); tissue Sigma-Aldrich; host or cells: pooled human liver microsomes
Description: as §4

[13] = Human liver microsomal stability; type: in vitro ADME; conditions: microsomes, pH 7.4
Description: (§5) To finish the reaction, an acetonitrile solution (involved in chlorpropamide) is added. The reaction tubes are centrifuged and the supernatant is withdrawn for analysis by LC–MS/MS.

[14] = in vitro; type: in vitro ADME; conditions: rat, microsomes, pH 7.4
Description: as §5

[15] = in vitro; type: in vitro ADME, human
Description: (§6) Human and rat plasma (Sigma-Aldrich) are incubated at 37 °C with test compounds. During the incubation, aliquots are withdrawn at 0, 30, 120 min time points and acetonitrile solution (containing chlorpropamide) is added. After vortexing, the aliquots are centrifuged and the supernatant is withdrawn for analysis by LC–MS/MS.

[16] = in vitro; type: in vitro ADME, rat
Description: as §6

T2 sequence (P07195 whole entry): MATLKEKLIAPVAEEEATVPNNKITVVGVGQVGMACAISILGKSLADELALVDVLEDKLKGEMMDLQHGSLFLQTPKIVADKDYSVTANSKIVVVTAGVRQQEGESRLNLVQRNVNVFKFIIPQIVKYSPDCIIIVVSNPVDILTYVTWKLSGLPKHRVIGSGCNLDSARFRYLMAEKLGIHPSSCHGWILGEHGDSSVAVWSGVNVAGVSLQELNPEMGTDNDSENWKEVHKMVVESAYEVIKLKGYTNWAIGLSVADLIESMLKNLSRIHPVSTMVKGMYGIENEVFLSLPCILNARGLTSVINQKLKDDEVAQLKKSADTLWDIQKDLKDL
T4 sequence (P11712 whole entry): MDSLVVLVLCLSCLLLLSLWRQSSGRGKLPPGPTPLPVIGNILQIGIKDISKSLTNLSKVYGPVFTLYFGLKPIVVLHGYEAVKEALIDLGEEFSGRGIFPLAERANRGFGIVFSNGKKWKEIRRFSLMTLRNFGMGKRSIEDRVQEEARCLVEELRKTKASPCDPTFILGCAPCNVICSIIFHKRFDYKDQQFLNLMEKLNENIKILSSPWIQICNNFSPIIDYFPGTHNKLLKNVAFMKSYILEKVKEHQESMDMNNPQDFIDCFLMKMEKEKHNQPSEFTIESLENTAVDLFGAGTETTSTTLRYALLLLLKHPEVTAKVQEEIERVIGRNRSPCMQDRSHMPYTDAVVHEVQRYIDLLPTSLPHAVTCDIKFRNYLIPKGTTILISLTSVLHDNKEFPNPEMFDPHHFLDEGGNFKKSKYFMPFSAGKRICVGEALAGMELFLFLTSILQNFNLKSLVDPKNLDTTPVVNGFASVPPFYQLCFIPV
T5 sequence (P33261 whole entry): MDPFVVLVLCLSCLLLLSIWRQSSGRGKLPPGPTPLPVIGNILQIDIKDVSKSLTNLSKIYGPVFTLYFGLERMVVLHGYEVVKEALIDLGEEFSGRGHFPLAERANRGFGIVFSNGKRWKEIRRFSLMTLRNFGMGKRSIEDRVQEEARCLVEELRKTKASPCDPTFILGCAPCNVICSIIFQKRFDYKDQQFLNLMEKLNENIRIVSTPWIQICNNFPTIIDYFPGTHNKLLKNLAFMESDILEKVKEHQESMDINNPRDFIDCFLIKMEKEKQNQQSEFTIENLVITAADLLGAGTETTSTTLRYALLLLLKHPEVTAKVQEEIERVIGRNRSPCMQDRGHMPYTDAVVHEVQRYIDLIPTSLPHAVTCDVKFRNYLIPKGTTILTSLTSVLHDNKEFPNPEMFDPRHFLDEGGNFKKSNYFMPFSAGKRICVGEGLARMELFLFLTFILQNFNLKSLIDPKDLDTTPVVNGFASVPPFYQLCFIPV
T7 sequence (P08684 whole entry): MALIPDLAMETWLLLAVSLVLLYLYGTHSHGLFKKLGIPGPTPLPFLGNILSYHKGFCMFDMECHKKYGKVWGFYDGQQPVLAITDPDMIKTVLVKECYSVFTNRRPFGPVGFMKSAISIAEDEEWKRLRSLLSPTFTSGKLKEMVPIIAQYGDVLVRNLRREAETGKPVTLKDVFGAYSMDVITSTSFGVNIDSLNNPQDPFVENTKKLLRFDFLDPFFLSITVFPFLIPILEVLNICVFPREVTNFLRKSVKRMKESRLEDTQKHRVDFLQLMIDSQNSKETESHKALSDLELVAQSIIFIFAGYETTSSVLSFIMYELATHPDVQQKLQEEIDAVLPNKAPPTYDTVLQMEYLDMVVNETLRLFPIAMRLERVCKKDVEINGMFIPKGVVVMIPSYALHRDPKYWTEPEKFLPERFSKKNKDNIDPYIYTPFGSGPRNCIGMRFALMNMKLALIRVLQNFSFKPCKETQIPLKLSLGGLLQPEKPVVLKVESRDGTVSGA
T6 sequence (P10635 whole entry): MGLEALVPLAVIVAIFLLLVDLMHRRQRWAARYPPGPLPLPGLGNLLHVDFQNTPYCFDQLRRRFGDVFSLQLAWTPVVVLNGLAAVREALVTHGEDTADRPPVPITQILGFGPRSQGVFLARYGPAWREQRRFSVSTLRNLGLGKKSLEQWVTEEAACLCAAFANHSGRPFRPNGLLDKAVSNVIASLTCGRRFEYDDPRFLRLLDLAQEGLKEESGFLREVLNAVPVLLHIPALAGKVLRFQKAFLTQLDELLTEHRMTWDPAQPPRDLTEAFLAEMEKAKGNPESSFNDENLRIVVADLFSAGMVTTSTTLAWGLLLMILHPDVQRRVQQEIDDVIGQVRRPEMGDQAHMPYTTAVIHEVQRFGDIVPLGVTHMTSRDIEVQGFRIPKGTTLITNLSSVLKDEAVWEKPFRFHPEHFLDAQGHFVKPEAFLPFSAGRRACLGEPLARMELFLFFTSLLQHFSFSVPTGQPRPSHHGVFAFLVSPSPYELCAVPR

SMILES: FC(F)(F)c1ccc(Sc2nc3ccccc3s2)cc1 [Compound 10]
- LDHB/LDHA ([1]; ratio of LDHB IC50 to LDHA IC50 (selectivity)): > 21.18
- IC50 ([1]; synthesized compounds, read-out: LDHA IC50): 47.2 µM
- IC50 [2]: > 1000 µM
- GI50 [3]: 12.2 µM
- GI50 [4]: 56.5 µM
- GI50 [5]: 61.4 µM
- GI50 [6]: 88.9 µM
- GI50 [7]: 343 µM
- CYP1A2 isozyme activity (% of control activity) [8]: 36.7 % of control activity
- CYP2C9 isozyme activity (% of control activity) [9]: 97.4 % of control activity
- CYP2C19 isozyme activity (% of control activity) [10]: 12.1 % of control activity
- CYP2D6 isozyme activity (% of control activity) [11]: 95.1 % of control activity
- CYP3A4 isozyme activity (% of control activity) [12]: > 100 % of control activity
- remaining at 0.5 h, 1 µM [13]: 9.5%
- remaining at 0.5 h, 1 µM [14]: 5.2%
- plasma stability (in words) [15]: stable
- remaining at 0.5 h ([15]; human, plasma): 98.1%
- remaining at 2 h ([15]; human, plasma): 91.6%
- plasma stability (in words) [16]: stable
- remaining at 0.5 h ([16]; rat, plasma): 93.8%
- remaining at 2 h ([16]; rat, plasma): 87.5%
